This note sets out measurements from patent US20220162191A1, “SMALL MOLECULE MODULATORS OF IL-17” (LEO PHARMA A/S, priority 2019, published 2022).

A word on the EC50: it is the concentration needed to bring the measured effect to its halfway point.

The test addresses T1, human IL-17AA (Homo sapiens, UniProt Q16552).
T1 construct: host or cells: HEK (human embryonic kidney) cells
T1 sequence (Q16552 24-155) 1: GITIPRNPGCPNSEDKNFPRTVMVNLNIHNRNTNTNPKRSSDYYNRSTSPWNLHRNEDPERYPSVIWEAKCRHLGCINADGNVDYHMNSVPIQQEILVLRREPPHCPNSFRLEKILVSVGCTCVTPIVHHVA
T1 sequence (Q16552 24-155) 2: T1 sequence (Q16552 24-155) 1
Briefly: IL-8 release assay in human epithelial keratinocytes adult (HEKa). The class given is cell-based. As to conditions: 3 ng/ml human IL-17AA + 10 ng/ml human TNFalpha, 68-72 h, IL-8 by HTRF, read-out: Rel EC50 L-8 release assay. The gist of the method: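 IL-8 secretion, quantified by HTRF (665/620 nm) as percent of controls, served as the readout after 68–72 h culture of HEKa cells with compound plus IL-17AA (3 ng/ml final) and TNF-alpha (10 ng/ml final). Four-parameter logistic curves gave relative IC50 and Emax.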
On the technique in general: Time-resolved FRET reads energy transfer from a long-lived donor to a nearby acceptor.
In the case of `Cc1cnn(C)c1-c1ccc(NC(=O)[C@H](Cc2cc(-c3ccc(=O)n(C(C)C)c3)ccc2Cl)NC(=O)C2CCC2)cc1` [Example 325, N-[(1S)-1-[[2-chloro-5-(1-isopropyl-6-oxo-3-pyridyl)phenyl]methyl]-2-[4-(2,4-dimethylpyrazol-3-yl)anilino]-2-oxo-ethyl]cyclobutanecarboxamide], the EC50 was more than 1000 nM.
With `Cc1cnn(C)c1-c1ccc(NC(=O)[C@H](Cc2cc(-c3ccc(=O)n(C(C)C)c3)ccc2Cl)NC(=O)CCC(C)C)cc1` [Example 327, N-[(1S)-1-[[2-chloro-5-(1-isopropyl-6-oxo-3-pyridyl)phenyl]methyl]-2-[4-(2,4-dimethylpyrazol-3-yl)anilino]-2-oxo-ethyl]-4-methyl-pentanamide] the figure was 100 to 1000 nM.
With `Cc1cnn(C)c1-c1ccc(NC(=O)[C@H](Cc2cc(-c3ccc(=O)n(C(C)C)c3)ccc2Cl)NC(=O)C(C)C)cc1` [Example 328, N-[(1S)-1-[[2-chloro-5-(1-isopropyl-6-oxo-3-pyridyl)phenyl]methyl]-2-[4-(2,4-dimethylpyrazol-3-yl)anilino]-2-oxo-ethyl]-2-methyl-propanamide] the figure was more than 1000 nM; with `Cc1cnn(C)c1-c1ccc(NC(=O)[C@H](Cc2cc(-c3ccc(=O)n(C(C)C)c3)ccc2Cl)NC(=O)C2CC2)cc1` [Example 329, N-[(1S)-1-[[2-chloro-5-(1-isopropyl-6-oxo-3-pyridyl)phenyl]methyl]-2-[4-(2,4-dimethylpyrazol-3-yl)anilino]-2-oxo-ethyl]cyclopropanecarboxamide], 100 to 1000 nM; with `CCCC(=O)N[C@@H](Cc1cc(-c2ccc(=O)n(C(C)C)c2)ccc1Cl)C(=O)Nc1ccc(-c2c(C)cnn2C)cc1` [Example 330, N-[(1S)-1-[[2-chloro-5-(1-isopropyl-6-oxo-3-pyridyl)phenyl]methyl]-2-[4-(2,4-dimethylpyrazol-3-yl)anilino]-2-oxo-ethyl]butanamide], 100 to 1000 nM.
With `Cc1cnn(C)c1-c1ccc(NC(=O)[C@H](Cc2cc(-c3ccc(=O)n(C(C)C)c3)ccc2Cl)NC(=O)C2(F)CCC2)cc1` [Example 331, N-[(1S)-1-[[2-chloro-5-(1-isopropyl-6-oxo-3-pyridyl)phenyl]methyl]-2-[4-(2,4-dimethylpyrazol-3-yl)anilino]-2-oxo-ethyl]-1-fluoro-cyclobutanecarboxamide] the figure was less than 100 nM.
On to `Cc1cnn(C)c1-c1ccc(NC(=O)[C@H](Cc2cc(-c3ccc(=O)n(C(C)C)c3)ccc2Cl)NC(=O)C(C)C2CC2)cc1` (stereo partly drawn) [Example 332, (2S)-3-[2-chloro-5-(1-isopropyl-6-oxo-3-pyridyl)phenyl]-2-(2-cyclopropylpropanoylamino)-[4-(2,4-dimethylpyrazol-3-yl)phenyl]propanamide], for which the concentration giving a half-maximal response (EC50) is more than 1000 nM.
As to `Cc1cnn(C)c1-c1ccc(NC(=O)[C@H](Cc2cc(-c3ccc(=O)n(C(C)C)c3)ccc2Cl)NC(=O)c2cocn2)cc1` [Example 333, N-[(1S)-1-[[2-chloro-5-(1-isopropyl-6-oxo-3-pyridyl)phenyl]methyl]-2-[4-(2,4-dimethylpyrazol-3-yl)anilino]-2-oxo-ethyl]oxazole-4-carboxamide], the half-maximal effective concentration (EC50) is more than 1000 nM.
With `Cc1cnn(C)c1-c1ccc(NC(=O)[C@H](Cc2cc(-c3ccc(=O)n(C(C)C)c3)ccc2Cl)NC(=O)C2(C)CC2)cc1` [Example 334, N-[(1S)-1-[[2-chloro-5-(1-isopropyl-6-oxo-3-pyridyl)phenyl]methyl]-2-[4-(2,4-dimethylpyrazol-3-yl)anilino]-2-oxo-ethyl]-1-methyl-cyclopropanecarboxamide] the figure was 100 to 1000 nM.
Take `Cc1cnn(C)c1-c1ccc(NC(=O)[C@H](Cc2cc(-c3ccc(=O)n(C(C)C)c3)ccc2Cl)NC(=O)CC2CCC2)cc1` [Example 335, (2S)-3-[2-chloro-5-(1-isopropyl-6-oxo-3-pyridyl)phenyl]-2-[(2-cyclobutylacetyl)amino]-N-[4-(2,4-dimethylpyrazol-3-yl)phenyl]propanamide]: the concentration for a half-maximal effect (EC50) was 100 to 1000 nM.
With `Cc1cnn(C)c1-c1ccc(NC(=O)[C@H](Cc2cc(-c3ccc(=O)n(C(C)C)c3)ccc2Cl)NC(=O)CC2CC2)cc1` [Example 336, (2S)-3-[2-chloro-5-(1-isopropyl-6-oxo-3-pyridyl)phenyl]-2-[(2-cyclopropylacetyl)amino]-N-[4-(2,4-dimethylpyrazol-3-yl)phenyl]propanamide] the figure was 100 to 1000 nM; with `Cc1cnn(C)c1-c1ccc(NC(=O)[C@H](Cc2cc(-c3ccc(=O)n(C(C)C)c3)ccc2Cl)NC(=O)c2ccon2)cc1` [Example 337, N-[(1S)-1-[[2-chloro-5-(1-isopropyl-6-oxo-3-pyridyl)phenyl]methyl]-2-[4-(2,4-dimethylpyrazol-3-yl)anilino]-2-oxo-ethyl]isoxazole-3-carboxamide], 100 to 1000 nM.
With `Cc1n[nH]c(C)c1-c1ccc(NC(=O)[C@H](NC(=O)C2(F)CC2)[C@H](C)c2cccc(-c3ccnc(N4C[C@@H]5C[C@H]4CO5)c3)c2)cc1` [Example 340, N-[(1R,2R)-1-[[4-(3,5-dimethyl-1H-pyrazol-4-yl)phenyl]carbamoyl]-2-[3-[2-[(1S,4S)-2-oxa-5-azabicyclo[2.2.1]heptan-5-yl]-4-pyridyl]phenyl]propyl]-1-fluoro-cyclopropanecarboxamide] the figure was 100 to 1000 nM; with `Cc1n[nH]c(C)c1-c1ccc(NC(=O)[C@@H](NC(=O)C2(F)CC2)[C@H](C)c2cccc(-c3ccnc(N4C[C@@H]5C[C@H]4CO5)c3)c2)cc1` [Example 341, N-[(1S,2R)-1-[[4-(3,5-dimethyl-1H-pyrazol-4-yl)phenyl]carbamoyl]-2-[3-[2-[(1S,4S)-2-oxa-5-azabicyclo[2.2.1]heptan-5-yl]-4-pyridyl]phenyl]propyl]-1-fluoro-cyclopropanecarboxamide], less than 100 nM.
In the case of `Cc1cnn(C)c1-c1ccc(NC(=O)[C@@H](NC(=O)C2(F)CC2)[C@H](C)c2cccc(-c3cc(N4C[C@@H]5C[C@H]4CO5)ncn3)c2)cc1` [Example 342, N-[(1S,2R)-1-[[4-(2,4-dimethylpyrazol-3-yl)phenyl]carbamoyl]-2-[3-[6-[(1S,4S)-2-oxa-5-azabicyclo[2.2.1]heptan-5-yl]pyrimidin-4-yl]phenyl]propyl]-1-fluoro-cyclopropanecarboxamide], the EC50 was more than 1000 nM.
With `Cc1cnn(C)c1-c1ccc(NC(=O)[C@@H](NC(=O)C2(F)CC2)[C@H](C)c2cccc(-c3cncc(N4C[C@@H]5C[C@H]4CO5)n3)c2)cc1` [Example 343, N-[(1S,2R)-1-[[4-(2,4-dimethylpyrazol-3-yl)phenyl]carbamoyl]-2-[3-[6-[(1S,4S)-2-oxa-5-azabicyclo[2.2.1]heptan-5-yl]pyrazin-2-yl]phenyl]propyl]-1-fluoro-cyclopropanecarboxamide] the figure was 100 to 1000 nM.
Then `Cc1cnn(C)c1-c1ccc(NC(=O)[C@@H](NC(=O)OC(C)(C)C)[C@@H](c2cccc(-c3ccnc(N4C[C@@H]5C[C@H]4CO5)c3)c2)C2CC2)cc1` [Example 346, tert-butyl N-[(1S)-1-[(R)-cyclopropyl-[3-[2-[(1S,4S)-2-oxa-5-azabicyclo[2.2.1]heptan-5-yl]-4-pyridyl]phenyl]methyl]-2-[4-(2,4-dimethylpyrazol-3-yl)anilino]-2-oxo-ethyl]carbamate], with less than 100 nM; and `Cc1cnn(C)c1-c1ccc(NC(=O)[C@@H](NC(=O)C2(F)CC2)[C@@H](c2cccc(-c3cncc(N4C[C@@H]5C[C@H]4CO5)c3)c2)C2CC2)cc1` [Example 347, N-[(1S)-1-[(R)-cyclopropyl-[3-[5-[(1S,4S)-2-oxa-5-azabicyclo[2.2.1]heptan-5-yl]-3-pyridyl]phenyl]methyl]-2-[4-(2,4-dimethylpyrazol-3-yl)anilino]-2-oxo-ethyl]-1-fluoro-cyclopropanecarboxamide], with less than 100 nM.
As for `Cc1cnn(C)c1-c1ccc(NC(=O)[C@@H](NC(=O)c2ccnn2C)[C@@H](c2cccc(-c3cncc(N4C[C@@H]5C[C@H]4CO5)c3)c2)C2CC2)cc1` [Example 348, N-[(1S)-1-[(R)-cyclopropyl-[3-[5-[(1S,4S)-2-oxa-5-azabicyclo[2.2.1]heptan-5-yl]-3-pyridyl]phenyl]methyl]-2-[4-(2,4-dimethylpyrazol-3-yl)anilino]-2-oxo-ethyl]-2-methyl-pyrazole-3-carboxamide], the EC50 was less than 100 nM.
Then `Cc1cnn(C)c1-c1ccc(NC(=O)[C@@H](NC(=O)c2ccnn2C)[C@@H](c2cccc(-c3cncc(N4C[C@@H]5C[C@H]4CO5)n3)c2)C2CC2)cc1` [Example 349, N-[(1S)-1-[(R)-cyclopropyl-[3-[6-[(1S,4S)-2-oxa-5-azabicyclo[2.2.1]heptan-5-yl]pyrazin-2-yl]phenyl]methyl]-2-[4-(2,4-dimethylpyrazol-3-yl)anilino]-2-oxo-ethyl]-2-methyl-pyrazole-3-carboxamide], with less than 100 nM; and `Cc1cnn(C)c1-c1ccc(NC(=O)[C@@H](NC(=O)C2(F)CC2)[C@@H](c2cccc(-c3cncc(N4C[C@@H]5C[C@H]4CO5)n3)c2)C2CC2)cc1` [Example 350, N-[(1S)-1-[(R)-cyclopropyl-[3-[6-[(1S,4S)-2-oxa-5-azabicyclo[2.2.1]heptan-5-yl]pyrazin-2-yl]phenyl]methyl]-2-[4-(2,4-dimethylpyrazol-3-yl)anilino]-2-oxo-ethyl]-1-fluoro-cyclopropanecarboxamide], with less than 100 nM.
